The data set is described as follows: xn = mol fraction of the nth substance listed. To be noted: 298 K, 101 kPa.

Each structure is given as a SMILES string.

One may read the viscosity as the resistance of a fluid to flow. High values mean a thick fluid, low ones a thin fluid. For the compound `O` + CC[NH3+].O=[N+]([O-])[O-], the viscosity (x1 = 1) is 0.89 mPa·s.

Turning to `CCCC[NH3+].O=[N+]([O-])[O-]` + O, the viscosity came to 69.8 mPa·s (x2 = 0.112); 49.5 mPa·s (x2 = 0.2); 23.17 mPa·s (x2 = 0.397); 15.53 mPa·s (x2 = 0.494); 10.22 mPa·s (x2 = 0.596); 6.54 mPa·s (x2 = 0.698). The compound further registered a viscosity (x2 = 0.95) of 1.53 mPa·s.

As for `CC[NH3+].O=[N+]([O-])[O-]` + O, the viscosity (x2 = 0) was 37.5 mPa·s; the viscosity (x2 = 0.1) amounted to 27.33 mPa·s; the viscosity (x2 = 0.198) stood at 19.84 mPa·s; the viscosity (x2 = 0.294) is reported as 14.51 mPa·s; the viscosity (x2 = 0.394) is given as 10.37 mPa·s; the viscosity (x2 = 0.5) was determined as 7.16 mPa·s. Also, the viscosity runs as follows: (x2 = 0.6) 4.98 mPa·s; (x2 = 0.799) 2.27 mPa·s; (x2 = 0.9) 1.47 mPa·s.

For the origin of these results see a compilation of properties of binary mixtures (doi:10.1016/j.molliq.2021.115610).
